According to patent publication US7314870B2, “Compounds, their preparation and use” (Neurosearch A/S, priority 2001, dated 2008):
Structures can show the parent of a compound that is named as a salt. Where two headings read alike, the source gives them in different places.

Tests used:
[1] = molecular target: T1, α7-subtype of nicotinic receptors (Rattus norvegicus, UniProt Q05941); assay: In vitro inhibition of 3H-α-bungarotoxine binding in rat brain
T1 construct: Cerebral cortices from male Wistar rats (150-250 g) are homogenised; from tissue; host or cells: rat cerebral cortex membrane homogenate
T1 sequence (Q05941 23-502): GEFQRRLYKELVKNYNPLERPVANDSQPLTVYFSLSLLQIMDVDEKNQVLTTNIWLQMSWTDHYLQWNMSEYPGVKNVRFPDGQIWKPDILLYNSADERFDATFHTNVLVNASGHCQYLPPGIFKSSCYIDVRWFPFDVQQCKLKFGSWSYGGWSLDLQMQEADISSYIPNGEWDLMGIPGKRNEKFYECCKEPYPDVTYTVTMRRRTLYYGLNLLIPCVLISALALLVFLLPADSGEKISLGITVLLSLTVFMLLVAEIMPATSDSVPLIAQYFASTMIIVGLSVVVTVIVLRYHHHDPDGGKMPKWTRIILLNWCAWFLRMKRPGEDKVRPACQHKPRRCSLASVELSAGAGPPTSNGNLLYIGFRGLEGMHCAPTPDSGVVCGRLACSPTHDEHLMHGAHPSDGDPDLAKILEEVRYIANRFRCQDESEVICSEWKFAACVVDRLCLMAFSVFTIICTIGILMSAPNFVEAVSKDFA

serotonin transporter = molecular target: T2, serotonin transporter (Rattus norvegicus, UniProt P31652); assay: In vitro inhibition of 3H-5-hydroxytryptamine uptake in cortical synaptosomes; type: biochemical; conditions: 1 nM 3H-5-HT, 30 minutes at 37° C
T2 construct: Cerebral cortices from male Wistar rats (150-200 g) are homogenized; from tissue; host or cells: rat cerebral cortex synaptosomes (P2 pellet)
T2 sequence (P31652 whole entry): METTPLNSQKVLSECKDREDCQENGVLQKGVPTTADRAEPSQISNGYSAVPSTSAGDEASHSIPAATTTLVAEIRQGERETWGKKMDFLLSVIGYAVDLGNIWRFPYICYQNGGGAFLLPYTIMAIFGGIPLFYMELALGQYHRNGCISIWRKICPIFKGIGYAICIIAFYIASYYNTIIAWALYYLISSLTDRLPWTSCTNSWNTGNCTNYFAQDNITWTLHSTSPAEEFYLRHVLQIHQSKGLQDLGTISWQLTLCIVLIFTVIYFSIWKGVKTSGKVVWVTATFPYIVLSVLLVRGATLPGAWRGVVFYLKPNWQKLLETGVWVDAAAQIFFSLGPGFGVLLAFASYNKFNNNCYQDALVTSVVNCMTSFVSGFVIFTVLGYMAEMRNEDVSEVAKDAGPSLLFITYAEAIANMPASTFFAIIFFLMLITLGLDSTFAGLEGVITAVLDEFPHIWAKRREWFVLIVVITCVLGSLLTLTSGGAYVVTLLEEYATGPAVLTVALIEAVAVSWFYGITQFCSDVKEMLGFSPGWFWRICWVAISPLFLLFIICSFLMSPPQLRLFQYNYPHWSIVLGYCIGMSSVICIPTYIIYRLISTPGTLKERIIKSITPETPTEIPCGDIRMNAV
Description: In Vitro Inhibition of ^3H-5-Hydroxytyptamine Uptake in Cortical Synaptosomes
Serotonin transporters/uptake sites on nerve terminals presumably function to terminate neuronal signaling by removing serotonin from the synaptic cleft. The activity of the serotonin transporter integral protein can be measured in vitro by synaptosomal uptake of ^3H-5-hydroxytryptamine (5-HT, serotonin).
Preparations are performed at 0-4° C. Cerebral cortices from male Wistar rats (150-200 g) are homogenized for 5-10 seconds in 100 volumes of ice-cold 0.32 M sucrose containing 1 mM pargyline, using a motor driven teflon pestle in a glass homogenizing vessel. Monoamine oxidase activity is inhibited in the presence of pargyline.
The homogenate is subjected to centrifugation at 1000×g for 10 minutes. The resulting supernatant is then centrifuged at 27,000×g for 50 minutes and the supernatant is discarded. […]
Aliquots of 4.0 ml tissue suspension are added to 100 μl of test solution and 100 μl of ^3H-5-HT (1 nM, final concentration), mixed and incubated for 30 minutes at 37° C. Non-specific uptake is determined using Citalopram (1 μM, final concentration, available from Lundbeck, Denmark). […]
The amount of radioactivity on the filters is determined by conventional liquid scintillation counting. Specific uptake is calculated as the difference between total uptake and non-specific uptake. […]

Structure (SMILES): CN1C2C=C(C3=Cc4ccccc4S3(=O)=O)CC1CC2 (racemic) [Compound 2, (±)-3-2-Benzo[b]thiophenyl-1,1-dioxide)-8-methyl-8-azabicyclo[3.2.1]oct-2-ene fumaric acid salt]
- IC50 [1]: 18 nM
- IC50 (serotonin transporter): 660 nM

Structure (SMILES): O=S1(=O)C(C2=CC3CCC(C2)N3)=Cc2ccccc21 (racemic) [Compound 1, (±)-3-(2-Benzo[b]thiophenyl-1,1-dioxide)-8-H-8-azabicyclo[3.2.1]oct-2-ene fumaric acid salt]
- IC50 (serotonin transporter): 190 nM

Structure (SMILES): C=CCN1C2C=C(C3=Cc4ccccc4S3(=O)=O)CC1CC2 (racemic) [Compound 3, (±)-3-(2-Benzo[b]thiophenyl-1,1-dioxide)-8-allyl-8-azabicyclo[3.2.1]oct-2-ene]
- IC50 ([1]; rat cerebral cortex homogenate, 2 nM 3H-α-bungarotoxine, 2 hours at 37° C, read-out: Inhibition of 3H-α-Bungarotoxine Binding IC50): 850 nM
